Assay results published in PubChem BioAssay AID1259426 (Fisher Drug Discovery Resource Center, 2018).
Calls of active or inactive are those of the source.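 How the source made its calls: active means EC50 under a set limit in control cells lacking the mosquito receptor, marking a fluorescence artifact; inactive means the rest.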

biological target: HEK293 Galpha15/GCaMP6s without NPYLR7, calcium fluorescence; assay: calcium response in NPYLR7-null HEK293 cells, dose response, counter-screen for mosquito NPYLR7 agonist project, cell-based, HEK293 lacking NPYLR7 (AID 1259426);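 further: potency for a rise in fluorescence over baseline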

| Structure (SMILES) | EC50 |
| --- | --- |
| O=C1/C(=C/c2cc3ccccc3o2)Oc2cc(O)ccc21 | > 20 µM (inactive) |
| CN1C(=CC=C2C(=O)Oc3ccccc3C2=O)C(C)(C)c2ccccc21 | 1.98 µM |
| O=[N+]([O-])c1ccc(-n2nc3ccc4nonc4c3n2)cc1 | > 20 µM (inactive) |
| O=c1oc2cc(O)ccc2cc1-c1nc2ccccc2s1 | 0.0533 µM |
| O=C(CSc1cn(CC(=O)N2CCCCCC2)c2ccccc12)NC1CCCC1 | > 20 µM (inactive) |
| Nc1c2c(nc3sc4c(c13)CCCC4)CCCCC2 | > 20 µM (inactive) |
| O=C1/C(=C/c2cc3cc(Br)ccc3o2)Oc2c1ccc(O)c2CN1CCN(CCO)CC1 | 6.64 µM |
| O=C1c2cccc3c(NCC(O)CCl)ccc(c23)C(=O)N1c1ccccc1 (configuration not stated) | < 0.039 µM |
| COc1cc(/C=C2\Oc3c(ccc4c3CN(CC3CCCO3)CO4)C2=O)cc(OC)c1OC (configuration not stated) | 9.34 µM |
| CCN1/C(=C/C2=CC(=O)CC(C)(C)C2)Sc2ccccc21 | 3.9 µM |
| CCN(CC)CCNC(=O)c1c(C)[nH]c(/C=C2/C(=O)Nc3ccc(F)cc32)c1C | 11.3 µM |
| COC(=O)c1cnc(/C=C/c2cc(C)c(O)c(C)c2)s1 | > 20 µM (inactive) |
| COc1ccc(/C=C2\Oc3c(ccc4c3CN(CC3CCCO3)CO4)C2=O)cc1OC (configuration not stated) | 4.8 µM |
| c1ccc(CNc2nc(NCCc3ccncc3)c3sccc3n2)cc1 | 15.8 µM |
| CCOc1cc(/C=C(\C#N)c2nc3ncc(Br)cc3[nH]2)ccc1O | 2.3 µM |
| N#CC1C(=N)SC(=N)C(C#N)C1c1ccc(Cl)cc1Cl (configuration not stated) | 7.76 µM |
| CCCC1CCC(C(=O)Nc2nnc(SCC)s2)CC1 (configuration not stated) | > 20 µM (inactive) |
| O=C(CN1C(=O)SC(=Cc2ccc(N3CCCCCC3)o2)C1=O)N1CCCCCC1 | > 20 µM (inactive) |
| CCN1C(=Cc2cc(C)[n+](C3CCCCC3)c(C)c2)Sc2ccccc21 | > 20 µM (inactive) |
| C=CCNc1ccc2c3c(cccc13)C(=O)N(c1ccccc1)C2=O | 0.0583 µM |
| O=C1/C(=C/c2cc3ccccc3o2)Oc2c1ccc(O)c2CN1CCN(CCO)CC1 | 1.94 µM |

| Structure (SMILES) | EC50 |
| --- | --- |
| CCN1C(=Cc2ccc3cc(C)ccc3[n+]2CC)Sc2ccccc21 | 0.911 µM |
| CCOC(=O)c1c(-c2ccccc2)csc1N=Cc1nc(-c2ccccc2)oc1O | > 20 µM (inactive) |
| CCN1CCN(Cc2c(O)cc(C)c3c2O/C(=C\c2ccco2)C3=O)CC1 | 9.72 µM |
| Nc1c(S(=O)(=O)O)cc2c3c(cccc13)C(=O)N(CCO)C2=O | 0.154 µM |
| O=C1C(=Cc2ccc(OC(F)F)cc2OC(F)F)Oc2cc(O)ccc21 | > 20 µM (inactive) |
| CCc1nc(N=C(N)N)nc2cc(C)ccc12 | > 20 µM (inactive) |
| COCCOc1ccc(NC(=O)N(C)C(C)C2(C)CC2)cn1 (configuration not stated) | > 20 µM (inactive) |
| Cc1nn(C)c(Cl)c1/C=C1/CCCc2c1nc1ccccc1c2C(=O)O | > 20 µM (inactive) |
| CC(C(=O)O)n1c(O)c(C=C2C=Nc3ccccc32)sc1=S (configuration not stated) | 6.92 µM |
| NC(=NCCCCCCN=C(N)N=C(N)Nc1ccc(Cl)cc1)N=C(N)Nc1ccc(Cl)cc1 | > 20 µM (inactive) |
| C#CCN1C(=O)SC(=Cc2ccc(N3CCCCC3)o2)C1=O | 2.36 µM |
| Cc1ccc(Nc2nc(Nc3cccc(F)c3)nc3nccnc23)c(C)c1 | > 20 µM (inactive) |
| CCN1CCc2c(sc(NC(=O)COc3ccccc3)c2-c2nc3ccccc3s2)C1 | > 20 µM (inactive) |
| CCOc1cc(/C=C2/NC(=S)NC2=O)cc(Br)c1O | 6.37 µM |
| O=C1NC(=S)SC1=Cc1cc(O)c(O)c(Cl)c1 | > 20 µM (inactive) |
| Fc1cc(F)cc(C2C=C(c3ccco3)Nc3ncnn32)c1 (configuration not stated) | 8.31 µM |
| CCN1C(=Cc2cc(C)[n+](CCOC)c(C)c2)Sc2ccccc21 | 17.6 µM |
| O=C1/C(=C/c2cccc(Br)c2)Oc2c1ccc(O)c2CN1CCN(CCO)CC1 | 12.7 µM |
| Oc1ccc(-c2onc3ccc(Cl)cc23)cc1 | > 20 µM (inactive) |
| O=C(Nc1cccc(-c2nnco2)c1)C1CCCCC1 | > 20 µM (inactive) |
| N#CC(C#N)=C1C=C2C=C(N3CCCC3)CCC2CC1 (configuration not stated) | < 17.7 µM |
